Laboratory results as given in patent US9730455B2, “Composition comprising a biological control agent and an insecticide” (Bayer CropScience AG, priority 2012, dated 2017).
Read-outs that look alike come from different tables or passages of the source.

Assays:
Assay type in all cases: in vivo
[1] = test system: mustard beetle larvae (Phaedon cochleariae); assay: Phaedon cochleariae - spray test; details: foliar; for mortality at 0.8 g/ha: 0.8 g ai/ha, after 6 d
Method: (§1) Formula for the efficacy of the combination of two compounds • The expected efficacy of a given combination of two compounds is calculated as follows (see Colby, S.R., “Calculating Synergistic and antagonistic Responses of Herbicide Combinations”, Weeds 15, pp. 20-22, 1967): • If • X is the efficacy expressed in % mortality of the untreated control for test compound A at a concentration of m ppm respectively m g/ha, • Y is the efficacy expressed in % mortality of the untreated control for test compound B at a concentration of n ppm respectively n g/ha, • E is the efficacy expressed in % mortality of the untreated control using the mixture of A and B at m and n ppm respectively m and n g/ha, • then is
• Solvent: 78.0 parts by weight of acetone • 1.5 parts by weight of dimethylformamide • Emulsifier: alkylaryl polyglycol ether
(§2) To produce a suitable preparation of active compound, 1 part by weight of active compound is mixed with the stated amount of solvents and is diluted with water, containing an emulsifier concentration of 1000 ppm, to the desired concentration. To produce a suitable preparation of a spore suspension the spores are diluted with emulsifier containing water to the desired concentration. Further test concentrations are prepared by dilution with emulsifier containing water.
Chinese cabbage (Brassica pekinensis) leaf-disks are sprayed with a preparation of the active ingredient of the desired concentration. Once dry, the leaf disks are infested with mustard beetle larvae (Phaedon cochleariae).
After the specified period of time, mortality in % is determined. 100% means all beetle larvae have been killed and 0% means none of the beetle larvae have been killed. The mortality values determined thus are recalculated using the Colby-formula (see sheet 1).

[2] = test system: fall armyworm larvae (Spodoptera frugiperda); assay: Spodoptera frugiperda - spray test; details: maize leaf sections; for mortality at 3.75 g/ha: 3.75 g ai/ha
Method: as §1
(§3) • Solvent: 78.0 parts by weight acetone • 1.5 parts by weight dimethylformamide • Emulsifier: alkylaryl polyglycol ether
as §2
Maize (Zea mais) leaf sections are sprayed with a preparation of the active ingredient of the desired concentration. Once dry, the leaf sections are infested with fall armyworm larvae (Spodoptera frugiperda).
After the specified period of time, mortality in % is determined. 100% means all caterpillars have been killed and 0% means none of the caterpillars have been killed. The mortality values determined thus are recalculated using the Colby-formula (see sheet 1).

[3] = test system: green peach aphid (Myzus persicae); assay: Myzus persicae - spray test; details: foliar, 24 h, after 1 d, Chinese cabbage leaf disks, read-out: Efficacy in % after 1^d (mortality)
Method: as §1, §3
as §2, with “Further test concentrations are prepared by dilution with emulsifier containing water.” left out
After the specified period of time, mortality in % is determined. […] The mortality values determined thus are recalculated using the Colby-formula (see sheet 1).

[4] = test system: two spotted spidermite (Tetranychus urticae), OP-resistant; assay: Tetranychus urticae - spray test, OP-resistant; details: French beans
Method: as §1, §3, §2
French beans (Phaseolus vulgaris) which are heavily infested with all stages of the two spotted spidermite (Tetranychus urticae), are sprayed with a preparation of the active ingredient of the desired concentration.
After the specified period of time, mortality in % is determined. 100% means all spider mites have been killed and 0% means none of the spider mites have been killed. The mortality values determined thus are recalculated using the Colby-formula (see sheet 1).

[5] = 144 h, Chinese cabbage leaf disks, read-out: Efficacy in % after 6^d (mortality)

## CNC(=O)c1cc(Cl)cc(C)c1NC(=O)c1cc(Br)nn1-c1ncccc1Cl [Chlorantraniliprole]
[1]; [5]
  mortality at 0.8 g/ha: 33%
[2]; Spodoptera frugiperda, 48 h, 0.8 g ai/ha, after 2 d, read-out: Efficacy in % after 2^d (mortality)
  mortality at 0.8 g/ha: 67%
[2]; Spodoptera frugiperda, 144 h, 0.16 g ai/ha, after 6 d, read-out: Efficacy in % after 6^d (mortality)
  mortality at 0.16 g/ha: 0%

## CN1COCN(Cc2cnc(Cl)s2)/C1=N\[N+](=O)[O-] [Thiamethoxam]
[3]; 0.8 g ai/ha
  mortality at 0.8 g/ha: 0%

## CN/C(=N\[N+](=O)[O-])NCc1cnc(Cl)s1 [Clothianidin]
[2]; Spodoptera frugiperda, 144 h, 20 g ai/ha, after 6 d, read-out: Efficacy in % after 6^d (mortality)
  mortality at 20 g/ha: 0%

## CS/C(C)=N\OC(=O)N(C)SN(C)C(=O)O/N=C(\C)SC [Thiodicarb]
[2]; Spodoptera frugiperda, 48 h, after 2 d, read-out: Efficacy in % after 2^d (mortality)
  mortality at 3.75 g/ha: 0%
[2]; Spodoptera frugiperda, 48 h, 7.5 g ai/ha, after 2 d, read-out: Efficacy in % after 2^d (mortality)
  mortality at 7.5 g/ha: 67%
[2]; Spodoptera frugiperda, 144 h, after 6 d, read-out: Efficacy in % after 6^d (mortality)
  mortality at 3.75 g/ha: 0%

## N#C/N=C1\SCCN1Cc1ccc(Cl)nc1 [Thiacloprid]
[3]; 4 g ai/ha
  mortality at 4 g/ha: 0%
[4]; Tetranychus urticae, 48 h, 20 g ai/ha, after 2 d, read-out: Efficacy in % after 2^d (mortality)
  mortality at 20 g/ha: 40%

## CNC(=O)c1cc(C#N)cc(C)c1NC(=O)c1cc(Br)nn1-c1ncccc1Cl [Cyantraniliprole]
[1]; 48 h, 4 g ai/ha, after 2 d, Chinese cabbage leaf disks, read-out: Efficacy in % after 2^d (mortality)
  mortality at 4 g/ha: 0%
[1]; [5]
  mortality at 0.8 g/ha: 0%

## Spinosad
[2]; 0.8 g ai/ha, after 6 d
  Efficacy in % after 6^d (mortality): 0%
[2]; 4 g ai/ha, after 2 d
  Efficacy in % after 2^d (mortality): 50%
[4]; 20 g ai/ha
  Efficacy in % after 6^d (mortality): 0%

## Spinetoram
[2]; 0.032 g ai/ha, after 6 d
  Efficacy in % after 6^d (mortality): 0%
[2]; 0.08 g ai/ha, after 2 d
  Efficacy in % after 2^d (mortality): 67%
[4]; 0.08 g ai/ha
  Efficacy in % after 6^d (mortality): 0%
[4]; 0.4 g ai/ha, after 2 d
  Efficacy in % after 2^d (mortality): 0%

## CNC(=O)Oc1cc(C)c(SC)c(C)c1 [Methiocarb]
[1]; in Brassica rapa, 144 h, read-out: Efficacy in % after 6^d (mortality)
  mortality at 10 g/ha: 50%
